Measurements taken from patent US5354862A, “Preparation and the use of halopropargylated cyclic quaternary ammonium compounds as antimicrobial agents” (Rohm and Haas Company, priority 1993, dated 1994).
Like-named read-outs stand apart in the source and are kept apart here.

Key:
Assay in all cases: Broth two-fold serial dilution MIC test
[1] = tested on: Staphylococcus aureus; assay type: cell-based, Staphylococcus aureus (ATCC 6538); details: Table 2, Saur
Description: (§1) A minimum inhibitory concentration (MIC) value is obtained using a broth, two-fold serial dilution test performed as follows: A stock solution or dispersion of the test compound, typically at a concentration of 1%, is made in a 5:3:2 solvent solution of acetone. methanol, and water. A volume of the stock solution is dispensed into culture media to give an initial starting test concentration of 500 ppm compound.
(§2) When the test is ready to be done, each vessel in the dilution series, except the first vessel, contains an equal volume of compound free broth. The first vessel contains twice the volume of broth with the starting concentration of test compound. One half of the broth from the first vessel is transferred to the second vessel- After being mixed, one half the resulting volume is removed from the second vessel and transferred to the third vessel. The entire cycle is repeated sufficiently to give a series of concentrations amounting to 500, 250, 125, 63, 31, 16, 8, and 4, 2, 1, 0.5, 0.25 ppm respectively.
(§3) Each vessel is then inoculated with a cell suspension of the appropriate test organism. Bacteria are grown in broth, fungi on agar slants for a time and at a temperature appropriate to the species being tested, and algae are a mixture of green algae and blue-green bacteria grown in a nutrient media. At the end of the growth period, in the case of bacteria, the broth is vortexed to disperse the cells.
(§4) In the case of fungi, the spores are harvested by pipetting water onto the slant and dislodging the spores with a sterile loop. The cell/spore suspension is standardized by controlling incubation time, temperature, and the volume of the diluent. The suspension is then used to inoculate the vessels containing the broth compound.
(§5) The vessels are then incubated at the appropriate temperature. After the incubation, the vessels are examined for growth/no growth. The minimum inhibitory concentration (MIC) is defined as the lowest concentration of compound that results in complete inhibition of growth of the test organism.
2. Staphylococcus aureus

[2] = tested on: Pseudomonas aeruginosa; assay type: cell-based, Pseudomonas aeruginosa (ATCC 15442); details: Table 2, Psae
Description: as §1, §2, §3, §4, §5
1. Pseudomonas aeruginosa

[3] = tested on: Escherichia coli; assay type: cell-based, Escherichia coli (ATCC 11229); details: Table 2, Ecol
Description: as §1, §2, §3, §4, §5

[4] = tested on: Aspergillus niger; assay type: cell-based, Aspergillus niger (ATCC 6275); details: Table 2, Anig, TSB media
Description: as §1, §2, §3, §4, §5
4. Aspergillus niger 6275 Anig

[5] = Staphylococcus aureus, M9G media, read-out: MIC
[6] = Staphylococcus aureus, TSB media, read-out: MIC
[7] = Pseudomonas aeruginosa, M9G media, read-out: MIC
[8] = Pseudomonas aeruginosa, TSB media, read-out: MIC
[9] = Escherichia coli, M9G media, read-out: MIC
[10] = Escherichia coli, TSB media, read-out: MIC
[11] = Aspergillus niger, read-out: MIC

| MIC [1, 5] [µg/mL] | MIC [1, 6] [µg/mL] | MIC [2, 7] [µg/mL] | MIC [2, 8] [µg/mL] | MIC [3, 9] [µg/mL] | MIC [3, 10] [µg/mL] | MIC [4, 11] [µg/mL] | MIC ([1]; M9G media) [ppm] | MIC ([1]; TSB media) [ppm] | MIC ([2]; M9G media) [ppm] | MIC ([2]; TSB media) [ppm] | MIC ([3]; M9G media) [ppm] | MIC ([3]; TSB media) [ppm] | MIC [4] [ppm] | Structure (SMILES) |
| --- | --- | --- | --- | --- | --- | --- | --- | --- | --- | --- | --- | --- | --- | --- |
| 2 | 4 | 16 | 125 | 2 | 4 | 16 |  |  |  |  |  |  |  | CCCCCCCCCCCC[N+]1(CC#CI)CCOCC1 [Compound 90, 4-dodecyl-4-(3-iodopropargyl)-morpholinium methanesulfonate] |
| 2 | 16 | 500 | > 500 | 32 | 63 | 16 |  |  |  |  |  |  |  | CCCCCCCC[N+]1(CC#CI)CCCC1 [Compound 12, 1-octyl-1-(3-iodopropargyl)-pyrrolidinium 4-methylbenzenesulfonate] |
| < 0.25 | < 0.25 | 0.5 | 4 | < 0.25 | 0.5 | 0.5 |  |  |  |  |  |  |  | CCCCCCCCCCCCCC[N+]1(CC#CI)CCSCC1 [Compound 57, 4-(tetradecyl)-4-(3-iodopropargyl)-thiomorpholinium benzenesulfonate] |
| 16 | 16 | 500 | 500 | 250 | 125 | 250 |  |  |  |  |  |  |  | CCCCCC[N+]1(CC#CI)CCCC1 [Compound 14, 1-hexyl-1-(3-iodopropargyl)-pyrrolidinium 4-methylbenzenesulfonate] |
| < 0.25 | < 0.25 | 8 | 16 | 2 | 1 | < 0.25 |  |  |  |  |  |  |  | CCCCCCCCCCCCCC[N+]1(CC#CI)CC=CCC1 (stereo not drawn) [Compound 53, 1-(tetradecyl)-1-(3-iodopropargyl)-1,2,3,6-tetrahydropyridinium benzenesulfonate] |
|  |  |  |  |  |  |  | < 0.25 | < 0.25 | 63 | 63 | 1 | 2 | 0.5 | CCCCCCCCCCCCCC[N+]1(CC#CI)CCCC1 [Compound 39, 1-tetradecyl-1-(3-iodopropargyl)-pyrrolidinium methanesulfonate] |
| < 0.25 | < 0.25 | 4 | 4 | < 0.25 | < 0.25 | 1 |  |  |  |  |  |  |  | CCCCCCCCCCCCCC[N+]1(CC#CI)CCCCCC1 [Compound 45, 1-tetradecyl-1-(3-iodopropargyl)-hexamethyleneiminium 4-methylbenzenesulfonate] |
| < 0.25 | 0.5 | 2 | 4 | < 0.25 | 0.5 | 1 |  |  |  |  |  |  |  | CCCCCCCCCCCCCC[N+]1(CC#CI)CC(C)OC(C)C1 (stereo not drawn) [Compound 43, 4-tetradecyl-4-(3-iodopropargyl)-2,6-dimethylmorpholinium 4-methylbenzenesulfonate] |
|  |  |  |  |  |  |  | 1 | 2 | 63 | 250 | 2 | 16 | 16 | CCCCCCCCCCCCCCCC[N+]1(CC#CI)CCCCC1 [Compound 60, 1-hexadecyl-1-(3-iodopropargyl)-piperidinium benzenesulfonate] |
|  |  |  |  |  |  |  | < 0.25 | < 0.25 | 32 | 125 | 4 | 16 | < 0.25 | CCCCCCCCCCCCCCCC[N+]1(CC#CI)CCCC1 [Compound 32, 1-hexadecyl-1-(3-iodopropargy)-pyrrolidinium benzenesulfonate] |
|  |  |  |  |  |  |  | 2 | 8 | > 500 | > 500 | 16 | 32 | 32 | CCCCCCOC(=O)CCCCC[N+]1(CC#CI)CCCC1 [Compound 84, 1-[5-(hexyloxycarbonyl)]pentyl-1-(3-iodopropargyl)-pyrrolidinium methanesulfonate] |
|  |  |  |  |  |  |  | 1 | 1 | 63 | 63 | 2 | 16 | 1 | CCCCCCCCCCCC[N+]1(CC#CI)CCCC1 [Compound 30, 1-dodecyl-1-(3-iodopropargyl)-pyrrolidinium benzenesulfonate] |
| 500 | 500 | > 500 | > 500 | > 500 | 500 | 250 |  |  |  |  |  |  |  | OCCCCCCC[N+]1(CC#CI)CCCC1 [Compound 4, 1-(7-hydroxyheptyl)-1-(3-iodopropargyl)-pyrrolidinium 4-methybenzenesulfonate] |
| 32 | 64 | 500 | 500 | 16 | 64 | 32 |  |  |  |  |  |  |  | CCCCCCCCCCOC(=O)CC[N+]1(CC#CI)CCOCC1 [Compound 95, 4-[2-(decyloxycarbonyl)]ethyl-4-(3-iodopropargyl)-morpholinium methanesulfonate] |
|  |  |  |  |  |  |  | 1 | 2 | 125 | 250 | 2 | 8 | 32 | CCCCCCCCCCOC(=O)C[N+]1(CC#CI)CCCC1 [Compound 70, 1-(decyloxycarbonyl)methyl-1-(3-iodopropargyt)-pyrrolidinium benzenesulfonate] |
|  |  |  |  |  |  |  | < 0.25 | 0.5 | 8 | 8 | 1 | 1 | 0.5 | CCCCCCCCCCCCCCCC[N+]1(CC#CI)CCOCC1 [Compound 50, 4-hexadecyl-4-(3-iodopropargyl)-morpholinium benzenesulfonate] |
| 16 | 32 | > 250 | 125 |  | > 250 | > 250 |  |  |  |  |  |  |  | OCC[N+]1(CC#CI)CCCC1 [Compound 1, 1-(2-hydroxyethyl)-1-(3-iodopropargyl)-pyrrolidinium 4-methylbenzenesulfonate] |
|  |  |  |  |  |  |  | 0.25 | 2 | 32 | 125 | 2 | 8 | 8 | CCCCCCCCCCCCOC(=O)C[N+]1(CC#CI)CCCC1 [Compound 75, 1-(dodecyloxycarbonyl)methyl-1-(3-iodopropargyl)-pyrrolidinium methanesulfonate] |
| < 0.25 | 0.5 | 4 | 4 | 0.5 |  |  |  |  |  |  |  | < 0.25 | < 0.25 | CCCCCCCCCCCCCCCC[N+]1(CC#CI)CCOCC1 [Compound 40, 1-hexadecyl-1-(3-iodopropargyt)-morpholinium methanesulfonate] |
| 63 | 250 | > 500 | > 500 |  | > 500 | > 500 |  |  |  |  |  |  |  | OCCCCCCCC[N+]1(CC#CI)CCCCC1 [Compound 23, 1-(8-hydroxyoctyl)-1-(3-iodopropargyl)-1-piperidinium 4-methylbenzenesulfonate] |

| Structure (SMILES) | MIC [1, 5] [µg/mL] | MIC [1, 6] [µg/mL] | MIC [2, 7] [µg/mL] | MIC [2, 8] [µg/mL] | MIC [3, 9] [µg/mL] | MIC [3, 10] [µg/mL] | MIC [4, 11] [µg/mL] | MIC ([1]; M9G media) [ppm] | MIC ([1]; TSB media) [ppm] | MIC ([2]; M9G media) [ppm] | MIC ([2]; TSB media) [ppm] | MIC ([3]; M9G media) [ppm] | MIC ([3]; TSB media) [ppm] | MIC [4] [ppm] |
| --- | --- | --- | --- | --- | --- | --- | --- | --- | --- | --- | --- | --- | --- | --- |
| CCCCCCCCCCCCCC[N+]1(CC#CI)CCOCC1 [Compound 86, 4-tetradecyl-4-(3-iodopropargyl)-morpholinium n-butylsulfonate] |  |  |  |  |  |  |  | 0.5 | 1 | 8 | 32 | 2 | 8 | 8 |
| CCCCCCCCCCCCCC[N+]1(CC#CI)CCCCC1 [Compound 85, 1-tetradecyl-1-(3-iodoproparygyl)-piperidinium n-butylsulfonate] |  |  |  |  |  |  |  | 0.25 | 0.25 | 8 | 32 | 1 | 4 | 4 |
| CCCCCCCCCCCCCC[N+]1(CC#CI)CCOCC1 [Compound 71, 4-tetradecyl-4-(3-iodopropargyl)-morpholinium bromide] |  |  |  |  |  |  |  | 0.25 | 0.25 | 8 | 32 | 1 | 4 | 4 |
